Test results from patent US20230094922A1, “METHODS OF THERAPEUTIC PROGNOSTICATION” (GENETIKAPLUS LTD., priority 2020, published 2023).

Tested on: iPSC-derived cortical neurons
Assay: Pre- and post-synaptic marker (Synapsin, PSD95) puncta and colocalization imaging analysis
Type: cell-based, human
Conditions: for intact synapses (colocalization of pre- and post-synaptic terminals), treated vs untreated: 7 days after treatment (Bupropion also 3 days)
Method: iPSC differentiation into neurons-iPSCs were seeded at a density of 3×10^6 cells/well on a hESC-qualified Matrigel pre-coated 6-well plate and incubated at 37° C., 5% CO2 overnight. Differentiation was initiated the following day (day 0) after verifying that 100% confluency was reached. Differentiation media was added daily according to the following order: […]7 (day 15 onward) similar to a previously published protocol developed by for rapid differentiation to cortical neurons. The components of the described media, Q1-7, are provided in Appendix 1. Cells were assessed for differentiation efficiency and cell death on a daily basis. On day 9, differentiated neurons were re-plated on either 96-well plates (destined for staining) or 12-well plates (destined for RNA extraction) that were coated with 15 μg/mL Poly-ornithine diluted in PBS (overnight incubation at 37° C.), followed by 1 μg/mL Laminin and 2 μg/mL Fibronectin diluted in PBS (overnight incubation at 37° C.): Neurons were first rinsed with pre-warmed PBS and 1 ml/well of Accutase was added for 35 minutes at 37° C., 5% CO2. DNAse1 (0.5 mg/mL) was then added for 10 additional minutes. 3 ml of pre-warmed Neurobasal media was added to each well and neurons were gently collected using a 5 ml […]. Wells were then verified for the presence of any remaining neurons. Neurons were spun down and resuspended in Q6 media. Neurons were seeded at a density of 150,000 cells/cm^2 placed back at 37° C. Following four hours of incubation, media was changed to Q6 media (150 μl per 96-well and 1 ml per 12-well). […] For dendritic arborization analysis, pre/post-synaptic markers and colocalization analysis; α-Syn, PSD95 and MAP2 primary antibodies were used. Following washes, fluorophore-coupled secondary antibodies were incubated in the blocking solution for 1 hour at room temperature. The cells were counter-stained with 4',6-diamidino-2-phenylindole (DAPI) for nuclei detection for 15 minutes at room temperature followed by washes with PBS. Imaging was performed using Nikon Spinning Disk Confocal microscope. For imaging of pre- and post-synaptic markers, images were acquired with a 100× objective in z-stacks. For dendritic arborization analysis, images were acquired with a 20× objective in z-stacks. For imaging of dendritic spines, during culture treatment described in materials and methods, cells were infected at Day 20 with human syn-GFP or mKate virus and stained for GFP or mKate. Cells were fixed as described at day 35 and stained with antibodies against GFP or mKate respectively. Images were acquired using the Nikon Confocal Alit with a 60× objective and a 2× digital zoom in z-stacks and using the Nikon spinning disk Microscope with a 100× objective in z-stacks. Neuronal and synaptic morphology was assessed using the Neurolucida software, pre- and post-synaptic marker analysis was performed using CellProfiler and total dendritic length was measured using Fiji software. Immunohistochemical examination was carried out on the induced neuronal cells.

CNCCC=C1c2ccccc2CCc2ccccc21 [Nortriptyline, 1-Propanamine, 3-(10,11-dihydro-5H-dibenzo[a,d]cyclohepten-5-ylidene)-N-methyl-]
density of post-synaptic terminals (PSD95 puncta), responders vs non-responders (after treatment): increase in density was also present
intact synapses, responders vs non-responders (after treatment): significantly more intact synapses
intact synapses (colocalization of pre- and post-synaptic terminals), treated vs untreated (neurons from non-responders): no change or even a slight decrease
density of post-synaptic terminals (distance between PSD95 puncta), after vs before treatment (neurons from responders, 7 days after treatment): significant increase in density
intact synapses (colocalization of pre- and post-synaptic terminals), treated vs untreated (neurons from responders): significantly upregulated
